US6822146B2, “Sulfonylurea-tolerant sunflower line M7” (priority 2000, dated 2004)
Like-named read-outs stand apart in the source and are kept apart here.

Legend:
[1] = tested on: H89A × M4M11; format: in vivo, sunflower; settings: variety G
Summary of the method: (§1)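 Fourth-generation self-pollinated maintainer mutant lines were chemically sterilized with a small amount of gibberellic acid at the bud "star" flower stage, making them act as CMS females. Herbicide resistance came from the female side. Field phytotoxicity was scored in %, with 0% meaning no crop injury.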

[2] = tested on: H89A × M4M12; format: in vivo, sunflower; settings: variety F
[3] = tested on: H89A × M4M7; format: in vivo, sunflower; settings: variety H
[4] = tested on: Hybrid control: H89A × RHA274; format: in vivo, sunflower; settings: variety A
Summary of the method: as §1

[5] = tested on: Inbred line control: H89A; format: in vivo, sunflower; settings: variety B
Summary of the method: as §1

[6] = tested on: GA-M4M12 × RHA274; assay: Test A field trial, phytotoxicity, variety C; format: in vivo, sunflower
Source text: (§2) To generate the hybrids C, D and E, the fourth generation self-pollinated maintainer mutant lines M4M12, M4M11 and M4M7 were chemically sterilized by applying at the bud “star” flower stage a small amount of gibberellic acid solution to sterilize the pollen according to the general method described in Sunflower Science Technology, J. F. Carter ed. (Number 19 in the series “Agronomy”) pp. 339-386. This treatment enables maintainer plants to behave as CMS inbred lines and allows the production of heterozygous resistant hybrids, with the herbicide resistant source coming from the female side. Such crosses allowed evaluating the sexual effect of the mutation source when introduced on the female side of a cross as described in crosses C, D and E versus the male side of a cross as described in crosses F, G and H. Labels I, J and K identify third generation CMS mutant lines crossed with fourth generation maintainer lines to maintain the highly heritable mutant trait in a male sterile homozygous resistant environment. One skilled in sunflower breeding art understands the meaning of such crosses.
(§3) A rating of 0% phytotoxicity means no crop injury.

[7] = tested on: GA-M4M11 × RHA274; assay: Test A field trial, phytotoxicity, variety D; format: in vivo, sunflower
Source text: as §2, §3

[8] = tested on: GA-M4M7 × RHA274; assay: Test A field trial, phytotoxicity, variety E; format: in vivo, sunflower
Source text: as §2, §3

[9] = tested on: BC3-M4M12; assay: Test A field trial, phytotoxicity, variety I; format: in vivo, sunflower
Source text: as §2, §3

[10] = tested on: BC3-M4M11; assay: Test A field trial, phytotoxicity, variety J; format: in vivo, sunflower
Source text: as §2, §3

[11] = tested on: BC3-M4M7; assay: Test A field trial, phytotoxicity, variety K; format: in vivo, sunflower
Source text: as §2, §3

[12] = tested on: Orobanche cumana; assay: Test E control of Orobanche cumana in resistant sunflower hybrid; format: in vivo; settings: for relative efficacy in controlling Orobanche: Test E rates, metsulfuron-methyl compared with tribenuron-methyl
Experimental: The effect of the various treatments was evaluated 35 days after sowing. The sunflower roots were cleaned by washing in water, and the presence of Orobanche nodules was determined visually and by weighing root wet mass in comparison to check plants free of Orobanche infestation. […] The nodules caused by Orobanche increased root weight, and a correlation (r=0.7) was found between visual scores and weight measurements. Thus the weighing technique could be used to corroborate visual efficacy scorings. Orobanche emergence was also scored but found to be less useful to evaluate treatment efficiency at the evaluation timing of this test.
Based on the results from Test D, a modified protocol was developed to include three timings of post-emergence treatment. The hybrid BC4-M5M12 (female parent)×PHA155 restorer line (male parent) described in Test C was used in this test. Various herbicide programs were tested using three replications. […] Seed coatings of these formulated herbicides were applied to 6 kg of seeds in such amount that considering the distribution of the coated seeds in each pot, the herbicide active ingredient (a.i.) application rates per hectare were as indicated.
The treatments were applied similar to the methods described for Test D. Pre-emergence applications were broadcast only, not soil incorporated. For pre-emergence application, the pots were sprayed using the high rates of the herbicides two days after sowing the sunflower seeds. Post-emergence treatments were applied at the 4-6 leaf stage of sunflower (corresponding to early stage of Orobanche attachment; identified as “T1”), the 6-8 leaf stage of sunflower (corresponding to the mid stage of Orobanche attachment; nodules <5 mm diameter; identified as “T2”) and 8-12 leaf stage of sunflower (corresponding to late stage of Orobanche attachment; identified as “T3”). The mid-stage applications included the high as well as low application rates of each herbicide.
For comparison were also included in this test other acetolactate synthase-inhibiting herbicides reported in the literature as giving good weed control of Orobanche (L. García-Torres et al., Weed Research 1994, 34, 395-402; L. García-Torres et al., Weed Technology 1995, 9, 819-824; J. Hershenhorn et al., Weed Technology 1998, 12, 108-114).

[13] = tested on: H89A × RHA274 (sulfonylurea-susceptible hybrid); assay: Test G control of volunteer sunflower, H89A × RHA274; format: in vivo; settings: rated 4 weeks after application, scale 0-100
[14] = tested on: BC2-M3M11; assay: Test G control of volunteer sunflower, BC2-M3M11; format: in vivo; settings: rated 4 weeks after application, scale 0-100
[15] = tested on: BC2-M3M12; assay: Test G control of volunteer sunflower, BC2-M3M12; format: in vivo; settings: rated 4 weeks after application, scale 0-100
[16] = tested on: mutants originating from M11 and M12; settings: tribenuron-methyl up to 60 g a.i./ha; others at Test G rates
Source text: This test involved sulfonylurea-resistant sunflower progeny BC2-M3M11 and BC2-M3M12, derived from M11 and M12, respectively. Also, a sulfonylurea-susceptible hybrid, H89A×RHA274, was included for comparison. Plants were sprayed with formulated herbicides at the 4-leaf stage. The efficacy of the treatments on the sunflowers was visually rated 4 weeks after application, using a scale where 0 means no control of the sunflowers, 85 means sufficient efficacy level to stop plants from flowering and propagating, and 100 means a complete destruction of the mutants.
Weed control in sugar beet requires 2-3 herbicide applications per season to efficiently control weeds in this slow growing crop.

[17] = 6 g a.i./ha post-emergence, without Citowet

## COC(=O)c1ccccc1S(=O)(=O)NC(=O)Nc1nc(C)nc(OC)n1 [Metsulfuron-methyl, metsulfuron-methyl]
[1]; [17]
  Maximum Phytotoxicity: 6%
[2]; [17]
  Maximum Phytotoxicity: 4%
[3]; [17]
  Maximum Phytotoxicity: 4%
[4]; [17]
  Maximum Phytotoxicity: 100%
[5]; [17]
  Maximum Phytotoxicity: 100%
[6]; in vivo
  Maximum Phytotoxicity: 8%
[7]; in vivo
  Maximum Phytotoxicity: 7%
[8]; in vivo
  Maximum Phytotoxicity: 0%
[9]; in vivo
  Maximum Phytotoxicity: 7%
[10]; in vivo
  Maximum Phytotoxicity: 11%
[11]; in vivo
  Maximum Phytotoxicity: 8%
[12]
  relative efficacy in controlling Orobanche: more efficacious in controlling Orobanche
[12]; post-emergence 3 + 3 g a.i./ha at T1 + T3
  Control: 96%
[12]; post-emergence 3 + 3 g a.i./ha at T1 + T3, listed as metsulfuron-methyl
  Control: excellent level of Orobanche control
[12]; post-emergence 6 g a.i./ha at T2
  Control: 97%
[12]; pre-emergence 3 + post-emergence 3 g a.i./ha at T2
  Control: 87%
[12]; pre-emergence 6 g a.i./ha (r19)
  Control: 30%
[13]; 4 g a.i./ha
  Efficacy on H89A × RHA274: 100
[14]; 4 g a.i./ha
  Efficacy on BC2-M3M11: 8
[15]; 4 g a.i./ha
  Efficacy on BC2-M3M12: 18
[16]
  resistance/tolerance of the mutants: to a lesser extent than with tribenuron-methyl

## COC(=O)c1cccc(C)c1S(=O)(=O)NC(=O)Nc1nc(OCC(F)(F)F)nc(N(C)C)n1 [Triflusulfuron-methyl, triflusulfuron-methyl]
[1]; 20 g a.i./ha post-emergence
  Maximum Phytotoxicity: 15%
[1]; 40 g a.i./ha post-emergence
  Maximum Phytotoxicity: 36%
[2]; 20 g a.i./ha post-emergence
  Maximum Phytotoxicity: 16%
[2]; 40 g a.i./ha post-emergence
  Maximum Phytotoxicity: 33%
[3]; 20 g a.i./ha post-emergence
  Maximum Phytotoxicity: 10%
[3]; 40 g a.i./ha post-emergence
  Maximum Phytotoxicity: 33%
[4]; 20 g a.i./ha post-emergence
  Maximum Phytotoxicity: 100%
[4]; 40 g a.i./ha post-emergence
  Maximum Phytotoxicity: 100%
[5]; 20 g a.i./ha post-emergence
  Maximum Phytotoxicity: 100%
[5]; 40 g a.i./ha post-emergence
  Maximum Phytotoxicity: 100%
[6]; variety C, 20 g a.i./ha post-emergence
  Maximum Phytotoxicity: 19%
[6]; variety C, 40 g a.i./ha post-emergence
  Maximum Phytotoxicity: 38%
[7]; variety D, 20 g a.i./ha post-emergence
  Maximum Phytotoxicity: 19%
[7]; variety D, 40 g a.i./ha post-emergence
  Maximum Phytotoxicity: 40%
[8]; variety E, 20 g a.i./ha post-emergence
  Maximum Phytotoxicity: 20%
[8]; variety E, 40 g a.i./ha post-emergence
  Maximum Phytotoxicity: 38%
[9]; variety I, 20 g a.i./ha post-emergence
  Maximum Phytotoxicity: 4%
[9]; variety I, 40 g a.i./ha post-emergence
  Maximum Phytotoxicity: 13%
[10]; variety J, 20 g a.i./ha post-emergence
  Maximum Phytotoxicity: 6%
[10]; variety J, 40 g a.i./ha post-emergence
  Maximum Phytotoxicity: 14%
[11]; variety K, 20 g a.i./ha post-emergence
  Maximum Phytotoxicity: 8%
[11]; variety K, 40 g a.i./ha post-emergence
  Maximum Phytotoxicity: 10%
[12]
  relative efficacy in controlling Orobanche: less efficacious in controlling Orobanche
[12]; post-emergence 18.75 g a.i./ha at T2
  Control: 75%
[13]; 15 g a.i./ha
  Efficacy on H89A × RHA274: 82
[14]; 15 g a.i./ha
  Efficacy on BC2-M3M11: 13
[15]; 15 g a.i./ha
  Efficacy on BC2-M3M12: 8
[16]
  resistance/tolerance of the mutants: to a lesser extent than with tribenuron-methyl

## COC(=O)c1ccccc1S(=O)(=O)NC(=O)N(C)c1nc(C)nc(OC)n1 [Tribenuron-methyl, tribenuron-methyl]
[1]; 22.5 g a.i./ha post-emergence
  Maximum Phytotoxicity: 3%
[2]; 22.5 g a.i./ha post-emergence
  Maximum Phytotoxicity: 0%
[3]; 22.5 g a.i./ha post-emergence
  Maximum Phytotoxicity: 0%
[4]; 22.5 g a.i./ha post-emergence
  Maximum Phytotoxicity: 100%
[5]; 22.5 g a.i./ha post-emergence
  Maximum Phytotoxicity: 100%
[6]; in vivo
  Maximum Phytotoxicity: 0%
[7]; in vivo
  Maximum Phytotoxicity: 6%
[8]; in vivo
  Maximum Phytotoxicity: 2%
[9]; in vivo
  Maximum Phytotoxicity: 4%
[10]; in vivo
  Maximum Phytotoxicity: 0%
[11]; in vivo
  Maximum Phytotoxicity: 4%
[12]; 22.5 g a.i./ha printed in pre-emergence column (first such row, r7), host BC4-M5M12 × PHA155
  Control: 70%
[12]; post-emergence 11.25 + 11.25 g a.i./ha at T1 + T3
  Control: 90%
[12]; post-emergence 22.5 g a.i./ha at T2
  Control: 75%
[12]; pre-emergence 11.25 + post-emergence 11.25 g a.i./ha at T2
  Control: 78%
[12]; pre-emergence 22.5 g a.i./ha (r18)
  Control: 0%
[12]; seed coating 11.25 + post-emergence 11.25 g a.i./ha at T2
  Control: 88%
[13]; 10 g a.i./ha, 4-leaf stage
  Efficacy on H89A × RHA274: 100
[13]; 20 g a.i./ha
  Efficacy on H89A × RHA274: 100
[13]; 40 g a.i./ha
  Efficacy on H89A × RHA274: 100
[13]; 60 g a.i./ha
  Efficacy on H89A × RHA274: 100
[14]; 10 g a.i./ha
  Efficacy on BC2-M3M11: 0
[14]; 20 g a.i./ha
  Efficacy on BC2-M3M11: 0
[14]; 40 g a.i./ha
  Efficacy on BC2-M3M11: 3
[14]; 60 g a.i./ha
  Efficacy on BC2-M3M11: 10
[15]; 10 g a.i./ha
  Efficacy on BC2-M3M12: 0
[15]; 20 g a.i./ha
  Efficacy on BC2-M3M12: 0
[15]; 40 g a.i./ha
  Efficacy on BC2-M3M12: 0
[15]; 60 g a.i./ha
  Efficacy on BC2-M3M12: 14
[16]
  resistance/tolerance of the mutants: excellent to very good level of resistance
